# Laboratory results as given in US20250101062A1, “ANTIMICROBIAL PEPTIDES” (Board of Regents of the University of Nebraska, priority 2023, published 2025).
# Where no end group is shown, it is not given here.
# Columns and labels:
# [1] = system: S. epidermidis 1457; assay: microbe, parasite or virus in culture; format: cell-based, Staphylococcus epidermidis; details: Staphylococcus epidermidis, MHB, Table 8, read-out: Antimicrobial activity (MIC) S. epidermidis 1457
# In short: (§1)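 Peptides twofold serially diluted against exponential-phase resistant clinical isolates at ~10^5 CFU/mL in MHB (also diluted MHB, TSB or LB in one protocol), CLSI-based broth microdilution. Incubated overnight at 37° C., OD 600 nm read; MIC taken as lowest concentration without growth, reported as ranges.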
# [2] = Effect of MHB dilution on antibacterial activity of a panel of antibiotics; format: cell-based; details: MHB from 100 to 12.5%
# [3] = system: P. aeruginosa E411-17; assay: Membrane depolarization (DiBAC4(3)); format: cell-based, Pseudomonas aeruginosa; details: Example 2, PBS with glucose
# Protocol: Bacterial membrane depolarization was conducted (Marks, et al. (2013) PLoS One 8(5):e63158). Briefly, an overnight culture of MRSA USA300 or P. aeruginosa E411-17 was inoculated into TSB and grown to exponential phase. Bacteria were washed with 1×PBS, re-suspended in twice the volume of 1×PBS containing 25 mM glucose, and incubated at 37° C. for 15 minutes. Then, 500 nM (final concentration) of the DiBAC4 (3) bis-(1, 3-dibutylbarbituric acid) trimethine oxonol (ANASPEC, CA) was added and vortexed gently. Aliquots of 90 μL of the energized bacteria solution were loaded to the 96 well plates (Corning COSTAR, AZ) and placed in a FLUOstar® Omega microplate reader (BMG LABTECH, NC). Fluorescence was read for 20 minutes at excitation and emission wavelengths of 485 nm and 520 nm, respectively. Then, 10 μL of peptide solutions was added and fluorescence readings were recorded for 40 minutes. Triton® X-100 (0.1%) was used as a positive control.
# [4] = system: E. coli E423-17; format: cell-based, Escherichia coli; details: MHB 100%
# [5] = biological target: T1, pepsin (Sus scrofa, UniProt P00791); format: in vitro ADME, mammalian
# T1 construct: purchased Thermo Fisher Scientific
# T1 sequence (P00791 60-385): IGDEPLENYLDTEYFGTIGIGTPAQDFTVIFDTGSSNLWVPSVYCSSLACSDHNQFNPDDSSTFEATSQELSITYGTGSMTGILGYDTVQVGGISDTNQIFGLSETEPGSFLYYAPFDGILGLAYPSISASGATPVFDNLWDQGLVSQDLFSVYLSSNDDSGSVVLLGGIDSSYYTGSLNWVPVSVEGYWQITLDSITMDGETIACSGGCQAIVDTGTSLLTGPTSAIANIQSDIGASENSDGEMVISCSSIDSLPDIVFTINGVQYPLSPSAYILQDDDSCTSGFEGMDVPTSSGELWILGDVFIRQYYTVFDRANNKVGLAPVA
# Protocol: (§2) A solution of peptide/protease (40:1 molar ratio) was made in phosphate-buffered saline (PBS; pH 7.1, Gibco, NY) and incubated at 37° C. for 1 hour. As controls, peptides without proteases were also incubated in the same manner. Then, aliquots of 10 μL were transferred to a 96-well polystyrene microplate and mixed with the exponential-phase MRSA USA300 culture as performed in the antibacterial activity assays above.
# [6] = system: human keratinocyte HaCaT cells; assay: Cell viability assay (MTS); format: cell-based
# Protocol: Human keratinocyte HaCaT cells were grown in DMEM/high glucose (Hyclone, UT) containing 10% fetal bovine serum (Mediatech, Corning, Manassas, VA). […] The mixture was incubated at 37° C. in 5% CO2 for 24 hours.
# HepG2 cells were cultured in ATCC-formulated Eagle's Minimum Essential Medium with 10% FBS. A549 cells were grown in ATCC-formulated F-12K Medium containing 10% FBS.
# [7] = system: MRSA USA300; assay: Biofilm inhibition; format: cell-based, Staphylococcus aureus; details: 0.5 to 2×MIC, 24 h
# Protocol: Biofilm Inhibition. MRSA USA300 (10^5 CFU/mL) was prepared from the exponential phase. […] Media were then pipetted out, and the wells were washed with 1×PBS to remove planktonic cells. Live cells in biofilms were quantitated by XTT as described above.
# [8] = system: A. baumannii B28-16; format: cell-based, Acinetobacter baumannii; details: B28-16
# In short: as §1
# [9] = biological target: T2, chymotrypsin (Bos taurus, UniProt P00766); format: in vitro ADME, mammalian
# T2 construct: purchased Thermo Fisher Scientific
# Protocol: as §2
compound,measurement,setting,value
CCCCCCCCCC(=O)N[C@@H](Cc1c[nH]c2ccccc12)C(=O)N[C@H](CC(N)=O)C(=O)N[C@@H](CC(=O)O)C(=O)N[C@@H]1C(=O)NCC(=O)N[C@@H](CCCN)C(=O)N[C@@H](CC(=O)O)C(=O)N[C@H](C)C(=O)N[C@@H](CC(=O)O)C(=O)NCC(=O)N[C@H](CO)C(=O)N[C@@H]([C@H](C)CC(=O)O)C(=O)N[C@@H](CC(=O)c2ccccc2N)C(=O)O[C@@H]1C [Daptomycin],MIC,[1],0.5 to 1 µM
same,change in MIC with dilution of MHB,[2],essentially no changes
CC[C@H](C)[C@H](NC(=O)[C@H](CCCCN)NC(=O)[C@H](CCC(=O)O)NC(=O)[C@H](CCCCN)NC(=O)[C@H](CO)NC(=O)[C@H](CCCCN)NC(=O)[C@H](CCCNC(=N)N)NC(=O)[C@H](Cc1ccccc1)NC(=O)[C@H](Cc1ccccc1)NC(=O)[C@H](CC(=O)O)NC(=O)CNC(=O)[C@H](CC(C)C)NC(=O)[C@@H](N)CC(C)C)C(=O)NCC(=O)N[C@@H](CCCCN)C(=O)N[C@@H](CCC(=O)O)C(=O)N[C@@H](Cc1ccccc1)C(=O)N[C@@H](CCCCN)C(=O)N[C@@H](CCCNC(=N)N)C(=O)N[C@H](C(=O)N[C@H](C(=O)N[C@@H](CCC(N)=O)C(=O)N[C@@H](CCCNC(=N)N)C(=O)N[C@H](C(=O)N[C@@H](CCCCN)C(=O)N[C@@H](CC(=O)O)C(=O)N[C@@H](Cc1ccccc1)C(=O)N[C@@H](CC(C)C)C(=O)N[C@@H](CCCNC(=N)N)C(=O)N[C@@H](CC(N)=O)C(=O)N[C@@H](CC(C)C)C(=O)N[C@H](C(=O)N1CCC[C@H]1C(=O)N[C@@H](CCCNC(=N)N)C(=O)N[C@H](C(=O)N[C@@H](CCC(=O)O)C(=O)N[C@@H](CO)C(=O)O)[C@@H](C)O)C(C)C)[C@@H](C)CC)C(C)C)[C@@H](C)CC [LL-37],membrane depolarization,[3],most powerful in membrane depolarization
same,Antimicrobial activity (MIC),[4],active
RRWWRWWR-NH2 [W543],activity after protease incubation,[5],retained antibacterial activity
same,toxicity to human HaCaT skin cells,[6],least toxic
same,inhibition of biofilm formation,[7],more effective than daptomycin
same,Activity (MIC) A. baumannii,[8],>32 µM
same,activity after protease incubation,[9],started to lose activity
